{
  "source": "patent US6776987B1",
  "about": "“Enhancement of cardiac chronotropy” (Massachusetts Institute of Technology, priority 1998, dated 2004)",
  "key": {"[1]": {"tested_on": "cultured fetal murine myocardial cells", "assay": "In vitro myocyte contractile recruitment: percentage of beating and fast beating GFP-positive transfected myocytes", "type": "cell-based, B6D2F1 fetal mice", "description": "(§1) Cultured fetal murine myocardial cells were prepared as previously described (Iwaki, K. et al., J Biol Chem., 265(23):13809-17 (1990); Sen, A. et al., J Clin Invest., 82 (4):1333-8 (1988)). Myocytes from ventricles of 17.5 day old B6D2F1 fetal mice were fragmented with a straight-edge razor. The tissue was then digested with 0.5 mg/ml collagenase II (Worthington Biochemical Corp., Freehold, N.J.) and 1.0 mg/ml pancreatin (Sigma Chemical Co., St. Louis, Mo.) in ADS buffer (116 mM NaCl, 20 mM HEPES, 1 MM NaH2PO4, 5.5 mM glucose, 5.4 mM KCl, 0.8 mM MgSO4, pH 7.4) at 37° C. for 10 min. The cells were centrifuged at 700 g at 4° C. for 5 min. The cells were then plated onto 48-well plates (Falcon Labware, Cockeysville, Md.) precoated with 1% gelatin or onto 25 mm^2 square coverslips precoated with 1% gelatin and 20 μg/ml laminin at a density of 10^5 cell/ml in Dulbecco's modified Eagle's media (DMEM) supplemented with 10% fetal calf serum (FCS), and Streptomycin 100 μg/ml, and Penicillin (500 μg/mL). The myocytes were grown at 37° C. in 5% CO2.\nThe transfection of myocytes with lipofection was optimized. Myocytes were plated as described above and grown overnight. The β2AR, LacZ, or GFP expression circular vectors (1:2.5 M/M; 0.125 μg total DNA/well) were incubated with Lipofectamine (Life Technologies) (12.5 μl/well) in Opti-Mem I (Life Technologies) reduced serum medium(12.5 μl/well) for 30 min at 25° C. After incubation, DMEM (100 μl/well) was added. The myocyte cultures were washed with PBS twice, the Lipofectamine-DNA mixtures were added, and the cultures incubated at 37° C. After 4 hours, an equal volume of DMEM with 20% FCS was added to the cultures. The cultures were incubated overnight and the medium was changed to DMEM with 10% FCS.\nThe myocytes were assayed 48 hr after transfection. […]\nThe percentage of beating myocytes was determined for cells transfected with either the β2AR expression vector or the control construct. […] In addition, the percentage of myocytes that were beating faster than 60 beats per minute (bpm) was determined in identical fashion. […]"}, "[2]": {"tested_on": "cultured fetal murine myocardial cells", "assay": "Average rate of myocyte contraction by video edge motion detector", "type": "cell-based, B6D2F1 fetal mice", "conditions": "control transfected cells in the presence of 10^-3 M isoproterenol", "description": "as §1\nThe transfection of myocytes with lipofection was optimized. […]\nThe average rate of myocyte contraction was quantitated by motion detector under both baseline and 10^−3 M isoproterenol. […] The statistical significance of the increased rate of myocyte contraction was determined by Student's t-Test analysis."}},
  "data": [
    {"smiles": "CC(C)NCC(O)c1ccc(O)c(O)c1", "note": "(stereo not shown) [isoproterenol]", "values": [
      {"measurement": "percentage of myocytes contracting", "setting": "[1]; control LacZ transfected myocytes, increasing concentrations of isoproterenol (0-10^-3 M)", "value": 69, "unit": "%"},
      {"measurement": "percentage of myocytes with chronotropic rates greater than 60 bpm (fast beating cells)", "setting": "[1]; control transfected cells at 10^-3 M isoproterenol", "value": 54, "unit": "%"},
      {"measurement": "effect on number of contracting myocytes", "setting": "[1]; β2AR transfected myocytes, addition of isoproterenol", "value": "failed to increase"},
      {"measurement": "average rate of contraction", "setting": "[2]", "value": "75+/−18 bpm"}
    ]}
  ]
}
